Reference: the NIST ThermoML archive (doi:10.1021/acs.jced.8b00979)

Test: xn = mol fraction of the nth substance listed
Conditions: 100 kPa, Liquid; for viscosity: Capillary tube (Ostwald / Ubbelohde) method; for mass density: Vibrating tube method

CCCC(C)O (stereo not given) [pentan-2-ol] + CCCCCO
Conditions | mass density, 288.15 K [kg/m3] | mass density, 293.15 K [kg/m3] | mass density, 298.15 K [kg/m3] | mass density, 303.15 K [kg/m3] | viscosity, 288.15 K [mPa·s] | viscosity, 293.15 K [mPa·s] | viscosity, 298.15 K [mPa·s] | viscosity, 303.15 K [mPa·s] | viscosity, 308.15 K [mPa·s]
x2 = 0 | 813.34 | 809.38 | 805.35 | 801.24 | 5.057 | 4.174 | 3.398 | 2.82 | 2.336
x2 = 0.1 | 813.91 | 810 | 806.03 | 801.98 | 4.988 | 4.141 | 3.388 | 2.815 | 2.354
x2 = 0.2 | 814.5 | 810.63 | 806.7 | 802.7 | 4.929 | 4.114 | 3.382 | 2.815 | 2.373
x2 = 0.298 | 815.05 | 811.21 | 807.31 | 803.36 | 4.881 | 4.095 | 3.377 | 2.819 | 2.392
x2 = 0.4 | 815.6 | 811.79 | 807.93 | 804.02 | 4.842 | 4.079 | 3.373 | 2.833 | 2.416
x2 = 0.5 | 816.13 | 812.36 | 808.54 | 804.67 | 4.806 | 4.065 | 3.371 | 2.852 | 2.442
x2 = 0.601 | 816.66 | 812.92 | 809.14 | 805.32 | 4.772 | 4.054 | 3.377 | 2.875 | 2.472
x2 = 0.699 | 817.15 | 813.44 | 809.7 | 805.92 | 4.741 | 4.047 | 3.385 | 2.901 | 2.504
x2 = 0.798 | 817.63 | 813.95 | 810.24 | 806.5 | 4.714 | 4.045 | 3.402 | 2.932 | 2.54
x2 = 0.901 | 818.1 | 814.45 | 810.78 | 807.06 | 4.697 | 4.044 | 3.434 | 2.974 | 2.587
